Data: patent US10876089B2, “Apparatus and method for high-fidelity podocyte cultivation” (priority 2016, dated 2020)
Entries after “also recorded” stand apart in the source; their conditions may differ.

Tests used:
Assay type in all cases: cell-based
podocyte layer = experiment: Permeability of cells cultured on transwell microcurvature or flat membrane; conditions: treatment by PAN, 15,000 or 50,000 cells/cm^2
Source text: One of the important physiological consequences from the disruption of the nephrin adhesion protein is the loss of barrier function from the podocyte slit diaphragm, which leads to abnormal protein levels in urine (e.g. albumin, etc.). The disclosed microcurvature membrane system may enable a direct measurement of the permeability of the podocyte layer in a non-invasive manner, in order to probe the barrier function at the podocyte slit diaphragm.
The permeability of the microcurvature membrane, without cells, may be investigated using dye, fluorescently labeled molecules, or any molecule whose concentration may be quantified in the chamber solution. Some examples include 1-10 μM of 70 kDa TRITC-dextran or 60 kDa FITC-albumin. The molecule of interest may be placed in the upper transwell chamber and collected in the lower chamber over time, or vice-versa. […] FIG. 12F is a plot of example preliminary results showing the permeability of the membrane surface (also referred to as a “topomembrane”) in different configurations, namely without microcurvature (“flat topomembrane”) or with convex microcurvature (“bubble topomembrane”); with cells cultivated on the surface (“+cells”), before cell cultivation (“no cells”) or after cultivated cells are removed (“cells removed”); and compared to the culture well without any membrane (“transwells”). […]

[1] = system: murine nephrin gene (NPHS1) in E11 murine podocytes; experiment: PAN stimulation of differentiated podocytes, nephrin gene expression by RT-qPCR; conditions: 17-100 μM PAN for 24 hours (day 8 to 9); microcurvature surface; 15,000 cells/cm^2; (+)ATRA media
Procedure: On day 9, cells were washed with warm, non-supplemented RPMI 1640 basal media prior to lysing and RNA isolation. A High Pure RNA Isolation Kit (Roche) was used according to manufacturer's instructions, using 50 μL of elution buffer for the final step. Each sample from the study consisted of 3 individual wells pooled together, to ensure that a sufficient amount of RNA was being collected. Thus, 9 wells were seeded for each group to generate n=3 samples per condition. Isolated RNA was converted to complementary DNA (cDNA) using the High Capacity cDNA Reverse Transcription Kit (Applied Biosystems, USA) for ensuing PCR applications. RNA solutions were diluted to a final 7.5 ng/μL in a total reaction volume of 60 μL. Real-time PCR was run on the generated cDNA using the TaqMan Gene Expression Assay (Applied Biosystems). cDNA was diluted to 3.33 ng/μL in a volume of 9 μL, for a total of 30 ng cDNA per reaction. […] Expression of murine nephrin gene (NPHS1, Thermo Fisher Scientific) and the housekeeping gene Beta-2-Microglobulin (B2M, Thermo Fisher Scientific) was determined using relative quantification analysis (28), where C57/bl6 mouse whole kidney cDNA was used as a positive control and as a normalizer in calculations. […]

E11 murine podocytes = experiment: Immunofluorescent staining (F-actin, nephrin, WGA) of differentiated podocytes; conditions: 100 μM PAN vs without PAN; microcurvature surface
Procedure: For immunofluorescent staining, cells were first washed with Dulbecco's phosphate buffered saline (DPBS, Life Technologies) and then fixed in 4% paraformaldehyde solution for 15 min at room temperature, followed by another wash with DPBS. For F-actin staining, the cells were permeated and blocked in 10% (v/v) FBS and 0.25% Triton X100 in DPBS for 1 hour. Next, the cells were incubated with Alexa Fluor® 660 phalloidin (Thermo Fisher Scientific) for 1 hour. For Nephrin and Wheat Germ Agglutinin (WGA) staining, the cells were blocked in 10% normal goat serum for 1 hour. Next, the cells were incubated in primary anti-Nephrin antibody (Thermo Fisher Scientific) overnight at 4° C. followed by incubation with FITC goat anti-rabbit IgG (1:200 dilutions, Abcam, UK) for 1 hour at room temperature. Lastly, the cells were incubated with Rhodamine-WGA (1:1000 dilution, Vector Laboratories, USA) for 10 min at room temperature.
The additional influence of the microcurvature topography is shown by the change from compacted, spindle-like cells to arborized morphologies. This was especially evident in the vehicle-only group.
From immunostaining results, it appeared that cell membrane area and nephrin expression decreased, indicating a possible reduction in cell spreading as a result of the PAN insult. However, the localization of nephrin still consistently appeared on top of the bubbles. […]

## CN(C)c1ncnc2c1ncn2[C@@H]1O[C@H](CO)[C@@H](N)[C@H]1O [PAN, Puromycin amino nucleoside]
Podocyte layer
  permeability of cells in response to chemical insult: increasing permeability
[1]
  nephrin gene expression compared to the PAN-free control: moderate downregulation; also recorded: dose-response downregulated behaviour
E11 murine podocytes
  cell membrane area (immunostaining): decreased
  nephrin expression (immunostaining): decreased
